According to US20260008775A1, “AZOLE MODULATORS OF CHOLESTEROL BIOSYNTHESIS AND THEIR USE FOR PROMOTING REMYELINATION” (GENENTECH, INC., priority 2022, published 2026):

What was measured:
[1] = test system: zymostenol accumulation (EBP) in EpiSC-derived OPCs; assay: GC/MS-based sterol profiling, zymostenol accumulation in EpiSC-derived OPCs; format: cell-based, mouse; details: Mus musculus, 24 h, EpiSC-derived OPCs, 24 hr, 8 doses from 0.15 nM to 333 nM; read-out: Mouse Zymostenol GCMS EC50
Method in brief: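 Mouse epiblast stem cell-derived OPCs plated at 100,000 cells/well in growth-factor-free N2B27 and treated 24 h. Sterols extracted by modified Folch wash, silylated with BSTFA, and quantified by electron-impact GC/MS against cholesterol-d7 (zymostenol ion 458). Zymostenol normalised to 24 h 100 nM positive-control reference.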

[2] = target: human emopamil binding protein and human 7-dehydrocholesterol reductase (hEBP-DHCR7) (Homo sapiens (Human), UniProt Q15125); assay: hEBP-DHCR7 radioligand binding assay (filter binding, membranes of co-expressing HEK293 cells); details: competition with [3H] radioligand, 8 doses 0.06 to 5000 nM, Ki calculated from IC50
Method in brief: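 Membranes from HEK293 cells transiently co-expressing hEBP and DHCR7 (10 μg/well) were incubated for 3 h at 22 °C with tritiated spiro-sulfone radioligand (added at 25 nM) and compound at 1 μM or 0.06–5000 nM. Filtration and scintillation counting followed. Inhibition was normalised to 5 μM unlabelled ligand and DMSO, and Ki was derived as IC50/(1+[L]/Kd).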

[3] = test system: EpiSC-derived OPCs; assay: In vitro phenotypic screening of OPCs, MBP high-content imaging (percentage of oligodendrocytes); format: cell-based, mouse; details: Mus musculus, 72 h, 3 days, MBP stain, dose-response 0.5 nM to 1000 nM; read-out: OPC EC50
Experimental: To assess effects of treatments on OPCs, all treatments were assayed in two or more independent platings of epiblast stem cell-derived OPCs (EpiSC). EpiSC-derived OPCs were obtained using in vitro differentiation protocols and culture conditions described previously (Najm et al, 2011, Nature Methods). OPCs were expanded and frozen down in aliquots. OPCs were thawed into growth conditions for at least one passage before use in further assays.
EpiSC-derived OPCs were grown and expanded in poly-L-ornithine (PO) and laminin-coated flasks in N2B27 media (DMEM/F12 (Gibco), N2-MAX (R&D Systems), B-27 (ThermoFisher), and GlutaMax (Gibco)) supplemented with FGF2 (10 μg/mL, R&D systems, 233-FB-025) and PDGF-AA (10 μg/mL, R&D systems, 233-AA-050) before harvesting for experiments. The cells were seeded onto poly-L-ornithine or poly-D-lysine coated CellCarrier Ultra plates (PerkinElmer) coated with laminin (Sigma, L2020) at a density of 150,000/cm^2 in N2B27 media without growth factors. For dose-response testing, a 1000× compound stock in dimethyl sulphoxide (DMSO) was added to assay plates, resulting in 8-point dose curves with final concentrations between 1000 nM and 0.5 nM. Positive controls and DMSO vehicle controls were included in each assay plate. Cells were incubated under standard conditions (37° C., 5% CO2) for 3 days and fixed with 4% paraformaldehyde (PFA) in phosphate buffered saline (PBS) for 20 min. Fixed plates were washed with PBS, permeabilized with 0.1% Triton X-100, and blocked with 10% donkey serum (v/v) in PBS for 40 min. Then, cells were labelled with MBP antibodies (Abcam, ab7349; 1:200) for 2 h at room temperature, washed with PBS, and stained with Alexa Fluor conjugated secondary antibodies (1:500) for 45 min. Nuclei were visualized by DAPI staining (Sigma; […]), followed by further PBS washes.
Cells and cell culture plates were imaged on the Operetta High Content Imaging and Analysis system (PerkinElmer). Analysis (PerkinElmer Harmony and Columbus software) began by identifying intact nuclei stained by DAPI. The peri-nuclear region of each cell was then cross-referenced with the mature myelin protein (MBP) stain to identify oligodendrocyte nuclei, and from this the percentage of oligodendrocytes was calculated. EC50 values were calculated using The Levenberg-Marquardt algorithm to fit a Hill equation to dose-response data (0.5 nM to 1000 nM).

Chain of human emopamil binding protein and human 7-dehydrocholesterol reductase (hEBP-DHCR7) (Q15125 whole entry): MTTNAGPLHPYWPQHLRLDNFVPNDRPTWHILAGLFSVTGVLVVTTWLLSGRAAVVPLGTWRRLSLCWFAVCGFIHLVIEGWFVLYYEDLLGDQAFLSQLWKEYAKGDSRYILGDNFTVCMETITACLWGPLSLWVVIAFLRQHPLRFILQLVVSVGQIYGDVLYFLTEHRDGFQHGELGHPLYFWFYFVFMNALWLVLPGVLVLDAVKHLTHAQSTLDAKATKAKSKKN

EC50 [1]	Ki [2]	EC50 [3]	SMILES
4 nM	7.81 nM	22.3 nM	CC(C)n1nc(-c2ccc(C(F)(F)F)cc2)cc1[C@H]1[C@@H]2C[C@H](N3CCOCC3)C[C@@H]21 [Compound 173, 4-((1R,3r,5S,6r)-6-(1-Isopropyl-3-(4-(trifluoromethyl)phenyl)-1H-pyrazol-5-yl)bicyclo[3.1.0]hexan-3-yl)morpholine]
3.58 nM	25.1 nM	29 nM	CC(C)n1nc([C@H]2CC[C@@H](C(F)(F)F)CC2)nc1[C@H]1[C@@H]2C[C@@H](N3CCOC[C@H]3C)C[C@@H]21 (single isomer, unassigned) [Compound 167*]
0.952 nM	10.9 nM	26.4 nM	CC(C)n1nc(-c2ccc(C#N)cc2)cc1[C@H]1[C@@H]2C[C@H](N3CCCOCC3)C[C@@H]21 [Compound 179*, 4-(5-((1R,3r,5S,6r)-3-(1,4-Oxazepan-4-yl)bicyclo[3.1.0]hexan-6-yl)-1-isopropyl-1H-pyrazol-3-yl)benzonitrile]
46 nM	43 nM	145 nM	CC(C)n1nc(-c2ccc(C(F)(F)F)nc2)cc1[C@H]1[C@@H]2C[C@@H](N3CCCOCC3)C[C@@H]21 [Compound 47, 4-((1R,3S,5S,6R)-6-(1-Isopropyl-3-(6-(trifluoromethyl)pyridin-3-yl)-1H-pyrazol-5-yl)bicyclo[3.1.0]hexan-3-yl)-1,4-oxazepane]
5.46 nM	14.2 nM	11.3 nM	CC(C)n1nc(-c2cccc(C(F)(F)F)c2)cc1[C@H]1[C@@H]2C[C@@H](N3CCCOCC3)C[C@@H]21 [Compound 175*, 4-((1R,3r,5S,6r)-6-(1-Isopropyl-3-(3-(trifluoromethyl)phenyl)-1H-pyrazol-5-yl)bicyclo[3.1.0]hexan-3-yl)-1,4-oxazepane]
230 nM	211 nM	144 nM	CC(C)n1nc(-c2cncc(C(F)(F)F)c2)cc1[C@H]1[C@@H]2C[C@@H](N3C[C@@H]4C[C@H]3CO4)C[C@@H]21 (single isomer, unassigned) [36*]
12.3 nM	8.28 nM	38.7 nM	CC(C)n1nc(-c2ccc(C(F)(F)F)nc2)nc1[C@@H]1CC[C@H](N2CCCOCC2)C1 [Compound 4, 4-((1S,3R)-3-(1-isopropyl-3-(6-(trifluoromethyl)pyridin-3-yl)-1H-1,2,4-triazol-5-yl)cyclopentyl)-1,4-oxazepane]
4 nM	13.4 nM	8.27 nM	CC(C)n1nc(-c2ccnc(C(F)(F)F)c2)cc1[C@H]1[C@@H]2C[C@H](N3CCOCC3)C[C@@H]21 [Compound 172, 4-((1R,3r,5S,6r)-6-(1-Isopropyl-3-(2-(trifluoromethyl)pyridin-4-yl)-1H-pyrazol-5-yl)bicyclo[3.1.0]hexan-3-yl)morpholine]
22.7 nM	12.6 nM	61.6 nM	CC(C)n1nc(-c2cccc(C#N)c2)cc1[C@H]1[C@@H]2C[C@@H](N3CCCOCC3)C[C@@H]21 [Compound 192*, 3-(5-((1R,3s,5S,6r)-3-(1,4-oxazepan-4-yl)bicyclo[3.1.0]hexan-6-yl)-1-isopropyl-1H-pyrazol-3-yl)benzonitrile]
21.4 nM	27.5 nM	97.3 nM	CC(C)n1nc(-c2cnc(C(F)(F)F)nc2)cc1[C@H]1[C@@H]2C[C@H](N3CCOCC3)C[C@@H]21 [Compound 203, 4-((1R,3r,5S,6r)-6-(1-isopropyl-3-(2-(trifluoromethyl)pyrimidin-5-yl)-1H-pyrazol-5-yl)bicyclo[3.1.0]hexan-3-yl)morpholine]
1.25 nM	16 nM	2.8 nM	CC(C)n1nc(-c2cncc(C(F)(F)F)c2)nc1[C@H]1[C@@H]2C[C@H](N3CCOC[C@H]3C)C[C@@H]21 [Compound 120, (R)-4-((1R,3r,5S,6R)-6-(1-Isopropyl-3-(5-(trifluoromethyl)pyridin-3-yl)-1H-1,2,4-triazol-5-yl)bicyclo[3.1.0]hexan-3-yl)-3-methylmorpholine]
18 nM	33 nM	98 nM	CC(C)n1nc(-c2cncc(C(F)(F)F)c2)cc1[C@H]1[C@@H]2C[C@H](N3C[C@H]4C[C@@H]3CO4)C[C@@H]21 (single isomer, unassigned) [37*]
7.92 nM	9.93 nM	140 nM	CC(C)n1nc(-c2cccc(C(F)(F)F)c2)nc1[C@H]1[C@@H]2C[C@H](N3CCOCC3)C[C@@H]21 [19*, 4-((1R,3r,5S,6r)-6-(1-isopropyl-3-(3-(trifluoromethyl)phenyl)-1H-1,2,4-triazol-5-yl)bicyclo[3.1.0]hexan-3-yl)morpholine]
122 nM	169 nM	549 nM	CC(C)n1nc(-c2cncc(F)c2)cc1[C@H]1[C@@H]2C[C@@H](N3CCCOCC3)C[C@@H]21 [Compound 188*, 4-((1R,3s,5S,6r)-6-(3-(5-fluoropyridin-3-yl)-1-isopropyl-1H-pyrazol-5-yl)bicyclo[3.1.0]hexan-3-yl)-1,4-oxazepane]
4.36 nM	32.8 nM	32.8 nM	CC(C)n1nc(-c2cncc(C(F)(F)F)c2)nc1[C@H]1[C@@H]2C[C@H](N3CCO[C@H](C)C3)C[C@@H]21 [Compound 163, (R)-4-((1R,3r,5S,6R)-6-(1-Isopropyl-3-(5-(trifluoromethyl)pyridin-3-yl)-1H-1,2,4-triazol-5-yl)bicyclo[3.1.0]hexan-3-yl)-2-methylmorpholine]
16.2 nM	28.2 nM	103 nM	CC(C)n1nc(-c2cncc(C(F)(F)F)c2)cc1[C@@H]1CC[C@@H](N2CCCOCC2)C1 (single isomer, unassigned) [65*]
2.48 nM	14.8 nM	13.9 nM	CC[C@H]1CN([C@@H]2CC[C@H](c3nc(-c4cnc(C(F)(F)F)nc4)nn3C(C)C)C2)CCO1 (single isomer, unassigned) [Compound 110*]
2.14 nM	3420 nM	17 nM	CC[C@@H]1CN([C@H]2CC[C@@H](c3nc(-c4cnc(C(F)(F)F)nc4)nn3C(C)C)C2)CCO1 [Compound 152, (R)-2-Ethyl-4-((1S,3R)-3-(1-isopropyl-3-(2-(trifluoromethyl)pyrimidin-5-yl)-1H-1,2,4-triazol-5-yl)cyclopentyl)morpholine]
64 nM	120 nM	63.8 nM	FC(F)(F)c1cccc(-c2nc([C@@H]3CC[C@H](N4CCCOCC4)C3)n(C3CC3)n2)n1 (single isomer, unassigned) [12*]
24 nM	89.3 nM	89.3 nM	CC(C)n1nc(-c2cnc(C(F)(F)F)nc2)nc1[C@H]1CC[C@@H](N2CCO[C@H](CF)C2)C1 [Compound 161, (S)-2-(Fluoromethyl)-4-((1R,3S)-3-(1-isopropyl-3-(2-(trifluoromethyl)pyrimidin-5-yl)-1H-1,2,4-triazol-5-yl)cyclopentyl)morpholine]
1.62 nM	21 nM	7.72 nM	CC(C)n1nc(-c2cccc(C(F)(F)F)n2)cc1[C@H]1[C@@H]2C[C@H](N3CCCOCC3)C[C@@H]21 [Compound 50, 4-((1R,3r,5S,6r)-6-(1-Isopropyl-3-(6-(trifluoromethyl)pyridin-2-yl)-1H-pyrazol-5-yl)bicyclo[3.1.0]hexan-3-yl)-1,4-oxazepane]
3.19 nM	20 nM	19.8 nM	CC(C)n1nc(-c2cncc(C(F)(F)F)c2)cc1[C@H]1[C@@H]2C[C@H](N3CCCOCC3)C[C@@H]21 [Compound 29, 4-((1R,3s,5S,6r)-6-(1-Isopropyl-3-(5-(trifluoromethyl)pyridin-3-yl)-1H-pyrazol-5-yl)bicyclo [3.1.0]hexan-3-yl)-1,4-oxazepane]
